Test results reported in US8440656B2, “Methods of treating pulmonary diseases and disorders by modulating calcium/calmodulin dependent protein kinase II activity” (University of Iowa Research Foundation, priority 2009, dated 2013).
Read-outs that look alike come from different tables or passages of the source.

Key:
CaMKIIδ = CaMKIIδ (Homo sapiens, UniProt Q13557); conditions: cited from earlier work
[1] = system: ovalbumin-sensitized C6B2 mice (asthma model); experiment: Ovalbumin-sensitized mouse asthma model, intranasal KN-93; assay type: in vivo; conditions: for airway resistance (Flexivent) on Methacholine challenge: KN93 100 mM intranasal during ovalbumin inhalations, at 50 and 100 μg/ml Methacholine, p<0.05, vs untreated; for Bronchoalveolar lavage eosinophils: KN93 intranasal, compared with untreated control mice
Method: (§1) FIG. 4. Effects of inhaled KN-93 on asthma. (A) C6B2 mice were sensitized by two i.p. injections of ovalbumin, followed by three 30 min inhalations of ovalbumin in the presence or absence of the CaMKII inhibitor KN93 (100 μM) intranasal. Airway reactivity was determined by Methacholine challenge using the Flexivent-measured airway resistance as the readout. (B) Bronchoalveolar lavage eosinophils in mice treated with KN 93 compared with untreated control mice.
In order to test the concept that CaMKII inhibition can reduce asthma symptoms, a validated asthma model was utilized. This model induces airway inflammation and hyper-reactivity by intra-peritoneal sensitization and inhalational challenge with the experimental allergen, ovalbumin. The “asthmatic” mice are then characterized by a graded inhalational challenge protocol using aerosolized methacholine. (See Jain et al., 2003). This approach is similar to that used in humans with clinical asthma.
as §1, with “C6B2” for “FIG. 4. Effects of inhaled KN-93 on asthma. (A) C6B2”, “mM)” for “μM)”, “[…] (* p<0.05, n=4 per group) (FIG. 4A).” for “(B)”, “eosinophils (a measure of allergic airway inflammation) were reduced” for “eosinophils”, “mice (FIG. 4B).” for “mice.”

Chain of CaMKIIδ (Q13557 whole entry): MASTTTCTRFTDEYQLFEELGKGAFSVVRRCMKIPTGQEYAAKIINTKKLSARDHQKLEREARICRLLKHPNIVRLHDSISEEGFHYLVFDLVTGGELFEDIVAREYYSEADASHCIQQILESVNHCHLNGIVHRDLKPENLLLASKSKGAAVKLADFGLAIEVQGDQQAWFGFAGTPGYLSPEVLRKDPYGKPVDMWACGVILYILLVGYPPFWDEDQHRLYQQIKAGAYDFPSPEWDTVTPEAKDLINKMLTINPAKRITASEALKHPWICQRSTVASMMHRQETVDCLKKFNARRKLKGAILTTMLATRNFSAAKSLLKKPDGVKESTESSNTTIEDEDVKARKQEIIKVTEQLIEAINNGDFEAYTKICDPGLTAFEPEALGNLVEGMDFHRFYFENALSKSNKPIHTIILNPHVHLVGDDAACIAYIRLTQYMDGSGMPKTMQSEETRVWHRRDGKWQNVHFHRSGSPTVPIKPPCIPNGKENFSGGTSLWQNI

Structure (SMILES)	IC50 (CaMKIIδ) [µM]	also measured
CC(C)(C)OC(=O)NCCCn1cc(C2=C(c3cccs3)C(=O)NC2=O)c2ccccc21 [Compound 13l]	> 20	
NCCCn1cc(C2=C(c3csc4ccccc34)C(=O)NC2=O)c2ccccc21 [Compound 2]		IC50 (CaMKIIδ; old, read-out: IC50 (μM) old): < 0.039 µM
NCCCn1cc(C2=C(c3ccc4ccccc4n3)C(=O)NC2=O)c2ccccc21 [Compound 14f]	> 20	
CN1C(=O)C(c2c[nH]c3ccc(Br)cc23)=C(c2cn(CCCN)c3ccccc23)C1=O [Compound 16t]	> 20	
CC(C)(C)OC(=O)NCCCn1cc(C2=C(c3ccccc3)C(=O)NC2=O)c2ccccc21 [Compound 13g]	> 20	
CC(C)(C)OC(=O)NCCCn1cc(C2=C(c3csc4ccccc34)C(=O)NC2=O)c2ccccc21 [Compound 13b]	> 20	
COc1ccc(S(=O)(=O)N(CCO)c2ccccc2CN(C)C/C=C/c2ccc(Cl)cc2)cc1 [KN-93]		airway resistance (Flexivent) on Methacholine challenge [1]: reduced airway resistance measurements; airway resistance (Flexivent) on Methacholine challenge ([1]; listed as KN93): significant reduction; Bronchoalveolar lavage eosinophils [1]: reduced eosinophils; Bronchoalveolar lavage eosinophils ([1]; listed as KN 93): reduced
